Results taken from US9969723B2, “3-(4-(benzyloxy)phenyl)hex-4-ynoic acid derivative, method of preparing same and pharmaceutical composition for preventing and treating metabolic disease including same as effective ingredient” (HYUNDAI PHARM CO., LTD, priority 2014, dated 2018).
Like-named read-outs stand apart in the source and are kept apart here.

Columns and labels:
CYP1A2 = CYP1A2 (Homo sapiens (Human), UniProt P05177); assay: CYP inhibition (BD GENTEST kit); format: in vitro ADME; settings: pH 7.4
Method: (§1) CYP is the enzyme involved in drug metabolism. So, the inhibition of this enzyme can change the prediction of dose of a drug and toxicity caused by the co-treatment with other drugs. Therefore, the inventors measured the inhibitory effect of the compounds of Examples of the invention on endogenous CYP3A4, CYP2C9, CYP1A2, CYP2D6, and CYP2C19. […] To prepare the Invitrogen kit, the test sample was diluted in distilled water at 2.5× of the final experimental concentration.
(§2) The test sample for BD GENTEST kit was diluted in acetonitrile at 50× of the final experimental concentration. NADPH-coenzyme mixture was prepared by diluting the coenzyme, G6PDH, and regulatory protein included in the kit with distilled water at the concentration instructed by the kit. The prepared 50× sample (4 μL) and the NADPH-coenzyme mixture (96 μL) were mixed in each well of U-bottom 96-well plate, followed by pre-culture for 10 minutes in a 37° C. incubator. Enzyme/substrate mixed solution was prepared by diluting the buffer (0.5 M potassium phosphate, pH 7.4), each CYP450 enzyme/substrate mixed solution included in the kit with distilled water at the instructed concentration. Upon completion of the pre-culture, 100 μL of the enzyme/substrate mixed solution was added in each well of the plate, followed by culture in a 37° C. incubator for 15 minutes (CYP 1A2), 30 minutes (CYP 3A4 and CYP 2C19) or 1 and half hours (CYP 2C9). […] The values obtained above were converted into % as the inhibition rate of the sample by the value of the non-treated group.

CYP2C19 = CYP2C19 (Homo sapiens (Human), UniProt P33261); assay: CYP inhibition (BD GENTEST kit); format: in vitro ADME; settings: CYP2C19 enzyme of BD GENTEST inhibition kit, pH 7.4, read-out: CYP inhibition (%) 2C19
Method: as §1, §2

CYP2C9 = CYP2C9 (Homo sapiens (Human), UniProt P11712); assay: CYP inhibition (BD GENTEST kit); format: in vitro ADME; settings: CYP2C9 enzyme of BD GENTEST inhibition kit, pH 7.4, read-out: CYP inhibition (%) 2C9
Method: as §1, §2

CYP2D6 = CYP2D6 (Homo sapiens (Human), UniProt P10635); assay: CYP inhibition (Invitrogen Vivid kit); format: in vitro ADME; settings: P450 BACULOSOMES reagent (Invitrogen Vivid CYP2D6 kit P2862), probe Vivid CYP450 substrate, read-out: CYP inhibition (%) 2D6
Text: (§3) CYP is the enzyme involved in drug metabolism. So, the inhibition of this enzyme can change the prediction of dose of a drug and toxicity caused by the co-treatment with other drugs. Therefore, the inventors measured the inhibitory effect of the compounds of Examples of the invention on endogenous CYP3A4, CYP2C9, CYP1A2, CYP2D6, and CYP2C19. At this time, Invitrogen (P2862) was used as the CYP2D6 inhibition kit, and BD GENTEST (459100, 459300, 459400, 459500) was used as the CYP1A2, CYP2C9, CYP2C19, and CYP3A4 inhibition kit. To prepare the Invitrogen kit, the test sample was diluted in distilled water at 2.5× of the final experimental concentration.
P450 BACULOSOMES® reagent and reproducer (100×) included in Invitrogen kit were diluted in Vivid® CYP450 reaction buffer (2×) at the concentration that matched the target CYP450. The prepared 2.5× sample (80 μL) and the diluted P450 BACULOSOMES® reagent mixture (100 μL) were mixed in each well of U-bottom 96-well plate, followed by pre-culture for 20 minutes. Vivid® CYP450 substrate and NADP+ (100×) were diluted in Vivid® CYP450 reaction buffer (2×) at the concentration that matched the target CYP450 and the substrate. Upon completion of the pre-culture, substrate-NADP (nicotinamide adenine dinucleotide phosphate) mixed solution (20 μL) was added thereto, followed by reaction for 1 hour. Upon completion of the reaction, the reactant was transferred onto the white plate, and then fluorescence was measured with a microplate reader (CYP 2D6 excitation wavelength: 400 nm, absorption wavelength: 502 nm). […]

CYP3A4 = CYP3A4 (Homo sapiens (Human), UniProt P08684); assay: CYP inhibition (BD GENTEST kit); format: in vitro ADME; settings: CYP3A4 enzyme of BD GENTEST inhibition kit, pH 7.4, read-out: CYP inhibition (%) 3A4
Text: as §3
The test sample for BD GENTEST kit was diluted in acetonitrile at 50× of the final experimental concentration. NADPH-coenzyme mixture was prepared by diluting the coenzyme, G6PDH, and regulatory protein included in the kit with distilled water at the concentration instructed by the kit. The prepared 50× sample (4 μL) and the NADPH-coenzyme mixture (96 μL) were mixed in each well of U-bottom 96-well plate, followed by pre-culture for 10 minutes in a 37° C. incubator. Enzyme/substrate mixed solution was prepared by diluting the buffer (0.5 M potassium phosphate, pH 7.4), each CYP450 enzyme/substrate mixed solution included in the kit with distilled water at the instructed concentration. Upon completion of the pre-culture, 100 μL of the enzyme/substrate mixed solution was added in each well of the plate, followed by culture in a 37° C. incubator for 15 minutes (CYP 1A2), 30 minutes (CYP 3A4 and CYP 2C19) or 1 and half hours (CYP 2C9). Upon completion of the reaction, the reactant was transferred onto the white plate, and then fluorescence was measured with a microplate reader (CYP 1A2 and CYP 2C19 excitation wavelength: 410 nm, absorption wavelength: 460 nm; CYP 2C9 and CYP 3A4 excitation wavelength: 409 nm, absorption wavelength: 530 nm). The values obtained above were converted into % as the inhibition rate of the sample by the value of the non-treated group.

GPR40 = GPR40 (Homo sapiens (Human), UniProt O14842); assay: GPR40 protein activity by intracellular calcium concentration (Fluo-4, Flexstation 3) in transfected HEK-293 cells; format: cell-based; settings: HEK-293 cells transfected with human GPR40, intracellular calcium
Method: The GPR40 protein activity according to the novel 3-(4-(benzyloxy)phenyl)hex-4-inoic acid derivative of the present invention was measured by investigating the changes in intracellular calcium concentration affected by the GRP40 activation. First, HEK-293 cells were transfected with human GPR40 DNA (Origene, RC218370) by using Fugene HD (Promega, E2311). […] 24 hours later, the cell culture medium was replaced with Dulbecco's Modified Eagle Medium (DMEM, 50 μl/well) supplemented with 1% fetal bovine serum (FBS). To measure the calcium concentration, 50 μl of Fluo-4 reagent (Invitrogen, F10471) was added to each well, followed by culture in a 37° C. incubator for 2 hours. […] 2 hours after the culture began, those prepared samples were automatically injected to the cells by using Flexstation 3 (Molecular Devices). Then, intracellular calcium concentration was measured for 120 seconds by using SoftMax® Pro software. At this time, dimethylsulfoxide (DMSO) was injected to the cells for the non-treated group, followed by measuring the calcium concentration therein. The GPR40 protein activity was calculated by the below mathematical formula 1 with the results of calcium concentration measurement. GPR40 activity=(intracellular calcium concentration increased by the sample)/(intracellular calcium concentration of the non-treated group)×100 [Mathematical Formula 1]

[1] = system: Male Goto-Kakizaki (GK) rats, the type II diabetes animal model (not obesity); assay: Oral glucose tolerance test (OGTT) 2; format: in vivo, rat
Method: (§4) Male Goto-Kakizaki (GK) rats at 22˜23 weeks, the type II diabetes animal model (not obesity), were adapted at least for 7 days. Only healthy animals were selected thereafter, followed by OGTT. After fasting for 16˜18 hours, 5 rats per group were randomly selected and orally administered with the compounds prepared in Examples 5, 9, 14, 28, 37, and 47 at the dose of 0.3˜10 mg/kg. At this time, 5% polyethyleneglycol (PEG) was orally administered at the same dose to the non-treated group rats. 60 minutes after the sample administration, glucose (4 g/kg) was orally administered thereto at the dose of 5 ml/kg. Then, blood glucose was measured by using Accu-chek active strip (Roche diagnostic Co.). The time for the measurement was set at 60 minutes before the glucose administration (−60), 0 minute, 20 minutes, 40 minutes, 60 minutes, and 120 minutes after the glucose administration, and blood glucose was measured through tail vein puncture.

[2] = system: Male OLETF (Otsuka Long-Evans Tokushima fatty) rats, the type II diabetes animal model (obesity); assay: Oral glucose tolerance test (OGTT) 3; format: in vivo, rat
Method: as §4, with “OLETF (Otsuka Long-Evans Tokushima fatty)” for “Goto-Kakizaki (GK)”, “29˜30” for “22˜23”, “(obesity),” for “(not obesity),”, “1˜10” for “0.3˜10”

[3] = values in text, read-out: EC50, concentration promoting activation of GPR40 protein by 50%
[4] = oral dose 10 mg/kg, values in text

GPR40, sequence (O14842 whole entry): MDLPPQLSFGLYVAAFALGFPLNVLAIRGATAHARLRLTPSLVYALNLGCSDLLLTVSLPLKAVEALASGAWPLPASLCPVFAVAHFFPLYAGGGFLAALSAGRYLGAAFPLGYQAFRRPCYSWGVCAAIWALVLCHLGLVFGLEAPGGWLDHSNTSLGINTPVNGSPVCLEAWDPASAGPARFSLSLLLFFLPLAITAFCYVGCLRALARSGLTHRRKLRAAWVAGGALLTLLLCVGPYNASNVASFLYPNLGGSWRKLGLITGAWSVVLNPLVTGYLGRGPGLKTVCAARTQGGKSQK
CYP2C19, sequence (P33261 whole entry): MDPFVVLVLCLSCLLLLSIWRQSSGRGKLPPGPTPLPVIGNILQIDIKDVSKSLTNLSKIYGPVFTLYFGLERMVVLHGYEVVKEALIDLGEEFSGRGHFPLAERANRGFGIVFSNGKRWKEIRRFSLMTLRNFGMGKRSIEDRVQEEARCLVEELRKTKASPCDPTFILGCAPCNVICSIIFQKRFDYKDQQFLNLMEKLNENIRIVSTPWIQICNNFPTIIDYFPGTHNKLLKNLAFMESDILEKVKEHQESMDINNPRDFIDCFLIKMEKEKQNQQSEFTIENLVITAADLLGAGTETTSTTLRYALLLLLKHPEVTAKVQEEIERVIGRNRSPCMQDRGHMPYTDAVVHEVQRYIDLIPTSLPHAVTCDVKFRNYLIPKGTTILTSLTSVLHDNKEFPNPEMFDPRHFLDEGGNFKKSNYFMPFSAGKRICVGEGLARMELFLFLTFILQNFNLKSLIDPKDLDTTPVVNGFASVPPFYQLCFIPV
CYP2C9, sequence (P11712 whole entry): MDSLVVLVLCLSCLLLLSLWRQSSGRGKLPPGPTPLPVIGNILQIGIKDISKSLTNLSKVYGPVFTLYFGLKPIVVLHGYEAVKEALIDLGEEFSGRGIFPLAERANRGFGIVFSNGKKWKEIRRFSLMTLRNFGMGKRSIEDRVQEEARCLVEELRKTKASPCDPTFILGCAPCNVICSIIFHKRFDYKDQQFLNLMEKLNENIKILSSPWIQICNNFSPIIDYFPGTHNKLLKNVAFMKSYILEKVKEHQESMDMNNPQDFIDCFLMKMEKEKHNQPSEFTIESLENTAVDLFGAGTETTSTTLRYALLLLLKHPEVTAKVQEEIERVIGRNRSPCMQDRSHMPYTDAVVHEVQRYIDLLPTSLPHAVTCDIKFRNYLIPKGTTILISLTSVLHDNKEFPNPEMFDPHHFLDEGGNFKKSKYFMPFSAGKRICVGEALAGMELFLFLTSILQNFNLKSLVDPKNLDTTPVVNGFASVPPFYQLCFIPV
CYP1A2, sequence (P05177 whole entry): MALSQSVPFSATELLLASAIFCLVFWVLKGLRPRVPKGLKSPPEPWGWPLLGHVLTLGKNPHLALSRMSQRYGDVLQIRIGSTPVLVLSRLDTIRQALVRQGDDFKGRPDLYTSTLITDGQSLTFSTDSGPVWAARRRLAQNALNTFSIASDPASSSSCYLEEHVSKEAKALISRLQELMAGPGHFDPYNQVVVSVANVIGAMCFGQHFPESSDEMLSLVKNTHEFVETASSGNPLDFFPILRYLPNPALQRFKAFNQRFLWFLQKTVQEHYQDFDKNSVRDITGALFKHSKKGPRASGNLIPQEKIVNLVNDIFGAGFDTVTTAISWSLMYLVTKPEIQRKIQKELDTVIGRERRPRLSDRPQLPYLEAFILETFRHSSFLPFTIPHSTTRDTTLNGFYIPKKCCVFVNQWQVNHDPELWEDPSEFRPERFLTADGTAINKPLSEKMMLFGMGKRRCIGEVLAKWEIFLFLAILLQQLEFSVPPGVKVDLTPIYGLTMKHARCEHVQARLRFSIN
CYP2D6, sequence (P10635 whole entry): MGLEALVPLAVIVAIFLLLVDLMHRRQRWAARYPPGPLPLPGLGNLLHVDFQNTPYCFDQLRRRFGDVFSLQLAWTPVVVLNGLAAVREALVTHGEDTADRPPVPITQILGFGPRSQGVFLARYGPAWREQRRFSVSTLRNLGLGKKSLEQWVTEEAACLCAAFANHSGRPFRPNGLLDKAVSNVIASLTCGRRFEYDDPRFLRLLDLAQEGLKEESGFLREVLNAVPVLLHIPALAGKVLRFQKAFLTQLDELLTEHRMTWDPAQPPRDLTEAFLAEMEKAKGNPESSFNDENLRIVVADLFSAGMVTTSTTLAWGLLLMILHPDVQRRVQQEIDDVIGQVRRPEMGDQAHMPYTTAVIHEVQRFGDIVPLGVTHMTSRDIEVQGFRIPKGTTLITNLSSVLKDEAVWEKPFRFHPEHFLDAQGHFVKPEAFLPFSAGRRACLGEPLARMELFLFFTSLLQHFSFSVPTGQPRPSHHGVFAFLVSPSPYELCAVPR
CYP3A4, sequence (P08684 whole entry): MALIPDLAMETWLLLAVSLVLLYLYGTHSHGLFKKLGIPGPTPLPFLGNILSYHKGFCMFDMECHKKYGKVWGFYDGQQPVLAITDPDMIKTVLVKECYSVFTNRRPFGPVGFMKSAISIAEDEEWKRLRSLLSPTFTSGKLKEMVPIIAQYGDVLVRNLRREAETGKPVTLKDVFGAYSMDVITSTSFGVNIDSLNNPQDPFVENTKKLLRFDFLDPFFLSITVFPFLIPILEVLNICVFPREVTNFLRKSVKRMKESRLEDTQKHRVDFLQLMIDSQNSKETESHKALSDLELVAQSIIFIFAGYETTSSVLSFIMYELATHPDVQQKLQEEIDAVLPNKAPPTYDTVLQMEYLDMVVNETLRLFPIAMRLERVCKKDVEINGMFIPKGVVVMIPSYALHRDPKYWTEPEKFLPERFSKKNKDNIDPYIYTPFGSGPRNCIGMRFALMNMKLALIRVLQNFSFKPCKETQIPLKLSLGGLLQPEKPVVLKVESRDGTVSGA

Row | inhibition at 15 min, 10 µM (CYP1A2) [%] | inhibition at 30 min, 10 µM (CYP2C19) [%] | inhibition at 1.5 h, 10 µM (CYP2C9) [%] | inhibition at 1 h, 10 µM (CYP2D6) [%] | inhibition at 30 min, 10 µM (CYP3A4) [%] | EC50 (GPR40; read-out: EC50) [nM] | EC50 (GPR40; [3]) [nM] | Structure (SMILES) | % AUC ([1]; oral dose 0.3 mg/kg) | % AUC ([1]; oral dose 1 mg/kg) | % AUC ([1]; oral dose 3 mg/kg) | % AUC ([1]; oral dose 10 mg/kg) | % AUC ([2]; oral dose 1 mg/kg) | % AUC ([2]; oral dose 3 mg/kg) | % AUC ([2]; oral dose 10 mg/kg) | hypoglycemic effect by that of the non-treated group [1, 4] | hypoglycemic effect compared to Comparative Example 1 at 10 mg/kg ([2]; oral dose 1 mg/kg) | hypoglycemic effect compared with the non-treated group [2, 4]
1 | 0 | 18.3 | 42.8 | 1.9 | 12.7 | – | – | CC#CC(CC(=O)O)c1ccc(OCc2cccc(C3=CCC4(CC3)OCCO4)c2)cc1 (stereo not shown) [Example 1, 3-(4-(3-(1,4-dioxaspiro[4,5]dec-7-en-8-yl)benzyloxy)phenyl)hex-4-ynoic acid] | – | – | – | – | – | – | – | – | – | –
2 | – | – | – | – | – | 200 to 300 | – | CC#CC(CC(=O)O)c1ccc(OCc2cccc(C3=CCC(O)CC3)c2)cc1 (stereo not shown) [Example 5, 3-(4-(3-(4-hydroxycyclohex-1-enyl)benzyloxy)phenyl)hex-4-ynoic acid] | C (under 25.0%) | C (under 25.0%) | C (under 25.0%) | B (25.0-35.0%) | B (25.0-35.0%) | B (25.0-35.0%) | A (over 35.0%) | – | – | –
3 | – | – | – | – | – | < 200 | < 200 | CC#CC(CC(=O)O)c1ccc(OCc2ccc(CN3CC=C(c4ccccc4)CC3)cc2)cc1 (stereo not shown) [Example 14, 3-(4-(4-((4-phenyl-5,6-dihydropyridine-1(2H)-yl)methyl)benzyloxy)phenyl)hex-4-ynoic acid] | C (under 25.0%) | C (under 25.0%) | B (25.0-35.0%) | B (25.0-35.0%) | C (under 25.0%) | B (25.0-35.0%) | B (25.0-35.0%) | – | – | –
4 | – | – | – | – | – | < 200 | < 200 | CC#C[C@@H](CC(=O)O)c1ccc(OCc2ccc(CN3CC=C(c4ccccc4)CC3)cc2)cc1 [Example 28, (S)-3-(4-(4-((4-phenyl-5,6-dihydropyridine-1(2H)-yl)methyl)benzyloxy)phenyl)hex-4-ynoic acid] | C (under 25.0%) | C (under 25.0%) | C (under 25.0%) | B (25.0-35.0%) | B (25.0-35.0%) | B (25.0-35.0%) | B (25.0-35.0%) | – | – | –
5 | – | – | – | – | – | – | – | CC#C[C@@H](CC(=O)[O-])c1ccc(OCc2ccc(CN3Cc4ccccc4C3)cc2)cc1.[Na+] [Example 37, sodium (S)-3-(4-(4-(isoindoline-2-ylmethyl)benzyloxy)phenyl)hex-4-ynoate] | C (under 25.0%) | B (25.0-35.0%) | B (25.0-35.0%) | A (over 35.0%) | A (over 35.0%) | A (over 35.0%) | A (over 35.0%) | more than 35.0% | higher hypoglycemic effect | more than 35.0%
6 | – | – | – | – | – | 200 to 300 | – | CC#C[C@@H](CC(=O)[O-])c1ccc(OCc2cccc(N3CCN(c4ccc(OC)cc4)CC3)c2)cc1.[Na+] [Example 47, sodium (S)-3-(4-(3-(4-(4-methoxyphenyl)piperazin-1-yl)benzyloxy)phenyl)hex-4-ynoate] | C (under 25.0%) | C (under 25.0%) | B (25.0-35.0%) | B (25.0-35.0%) | C (under 25.0%) | C (under 25.0%) | B (25.0-35.0%) | – | – | –
